Test results from US20260374809A1, “COMPOUNDS USEFUL FOR THE TREATMENT AND/OR CARE OF THE SKIN, HAIR, NAILS AND/OR MUCOUS MEMBRANES” (Lubrizol Advanced Materials, Inc., priority 2022, published 2026).
Where a SMILES comes first, the peptide text is derived from it. [ ]: non-standard residue; d: D form. The star is where a group is joined. Palmitoyl = CCCCCCCCCCCCCCCC(=O)*

System: Human dermal fibroblast (HDF)
Test: Collagen contraction assay with human dermal fibroblasts in collagen gel
Type: cell-based
Conditions: 0.01 mg/ml; basal control = 100, positive control with MES = 159.7
Excerpt: It is known that a remarkable change in the mechanical properties of the skin with aging is due to reduced contractile capacity as well as reduced migration activity of fibroblasts. Healthy fibroblasts induce contraction of the collagen network through physical interactions with collagen fibers. The collagen network is essential for maintaining the firmness of the skin. The collagen contraction assay is a well-known experimental approach to measuring the cell-induced contraction of the extracellular matrix. In this assay, the capacity of fibroblasts, embedded in a collagen-based gel, to reduce the gel diameter is evaluated.
By improving the contractile forces, the mechanical tension can be improved, which can be associated to “lifting” effect at the scale of fibroblasts.
The microcurrent system was built by coupling gold electrodes (in order to avoid medium oxidation leading to cell death when current goes through) to opposite sides of 60 mm Petri dishes (separated by 4 cm). When a voltage is applied, an electric field generates between opposite positive and negative poles and current passes through the culture. During the stimulation time (2 hours), each of the 60 mm Petri dishes is connected to a voltage source that allows regulating the amount of current that passes through each of them. For these experiments, a […] current (which corresponds to approx. 67 mV/mm) was used.
Human dermal fibroblast (HDF) cell culture and expansion: Cells were thawed in T75 flasks and the growth medium was changed every 2 days of cell culture. After 7 days, cells were expanded to obtain a total amount of 7×10^6 cells to be used in the experiments.
Once finished the expansion, cultures are trypsinized and seeded at 3×10^5 cells/60 mm Petri up to a total of 10 dishes per replicate. These ten dishes correspond to one experiment (Control/-MES vs+MES) at a specific concentration. Peptide treatment was performed at 0.01 mg/ml.
After an overnight (O/N) incubation to allow cell attachment, each Petri dish is treated at the corresponding concentration with 4 ml of specific medium for a total of 24 hours in both conditions (without MES and with MES). Peptide treatment on the dishes that are not stimulated with microcurrent is initiated 2 hours in advance, and their passage into 3D cultures occurs at the same time as the microcurrent stimulation of the other dishes. […]
Each 3D culture is prepared by mixing collagen solution with the culture medium corresponding to each of the conditions (without peptide or with peptide). […] Images of collagen gel diameter are taken of each well at 24 hours post detachment and analyzed by ImageJ. […]
[formula] • An initial area is stablished. […] Area t=0 gel […]1.86 cm^2 (Area of a well in a 24-well plate) • Quantification of Area at t=x; Ax. […]

Going from “H-ALKPNT-NH2 [H-Ala-Leu-Lys-Pro-Asn-Thr-NH2]” to `CSCC[C@H](NC(=O)[C@@H](CCC(N)=O)NC(=O)[C@H](CCCNC(=N)N)NC(=O)[C@H](CCCNC(=N)N)NC(C)=O)C(=O)N[C@@H](CCC(=O)O)C(=O)N[C@@H](CCC(=O)O)C(N)=O` [Ac-Arg-Arg-D-Gln-Met-Glu-Glu-NH2] (Ac-RR[dQ]MEE-NH2), the “Collagen contraction, MEAN (comparative peptides)” value falls from 101.4 to 82.5.

With `CC(=O)N[C@@H](CC(=O)O)C(=O)N[C@H](C(=O)N[C@@H](Cc1ccc(O)cc1)C(=O)N[C@@H](CCCCN)C(N)=O)C(C)C` [Ac-Asp-Val-Tyr-Lys-NH2] (Ac-DVYK-NH2) the “Collagen contraction, MEAN (comparative peptides)” value was 91.6.

System: Musclebind Like Protein 1 (MBNL1)
Test: MBNL1 protein expression in human skeletal muscle cells (hSKMC), HTRF
Type: cell-based
Conditions: 0.5 mg/ml, 48 hours, relative to basal control
Method: Musclebind Like Protein 1 (MBNL1) in Human Skeletal Muscle Cells (hSKMC)
An increase of MBNL-1 in muscle cells helps maintaining the tone of facial skin muscles. Thus, compounds able to enhance MBNL-1 can be used as a good approach for cosmetic treatment of sagging facial appearance.
Human skeletal muscle cells (hSKMC) were cultured at 100,000 cells in T25 flasks with growth medium. After 4 days, cells reached around 80% of confluency and were seeded at 150,000 cells per well in 12-well plates in growth medium. Cells were incubated for 72 hours and then they were changed to differentiation medium and incubated during 48 hours. At the end of this period, cells were treated with defined peptides (0.5 mg/ml) and with medium alone for control conditions during 48 hours in differentiation medium. Cells were also treated with 2 mM of ketoprofen as a positive control.
After the incubation period, cells were lysed and frozen at −80 °C. For total protein quantification protein extract was measured by Bicinchoninic Acid (BCA) method. MBNL1 protein detection was performed by Homogeneous Time Resolved Fluorescence (HTRF) technology. Normalization of MBNL1 levels were performed by total protein quantification for each condition. Results are expressed as a relative MBNL1 protein level respect to control conditions. At least 3 replicates were carried out per condition.

First: CC(=O)N[C@@H](CC(C)C)C(=O)N1CCC[C@H]1C(=O)N[C@H](C(=O)N[C@H](C(=O)O)[C@@H](C)O)C(C)C [PEP-4, Ac-Leu-Pro-Val-Thr-OH] (Ac-LPVT-OH)
Second: CCCCCCCCCCCCCCCC(=O)N[C@@H](CC(C)C)C(=O)N1CCC[C@H]1C(=O)N[C@H](C(=O)N[C@H](C(=O)O)[C@@H](C)O)C(C)C [PEP-3, Palm-Leu-Pro-Val-Thr-OH] (Palmitoyl-LPVT-OH)
The “% MBNL1 vs Basal control” value of the first is lower: 131.3% for the first, 160.4% for the second.

First: CC(C)C[C@H](N)C(=O)NCC(=O)N[C@H](C(=O)N[C@H](C(=O)O)[C@@H](C)O)C(C)C [PEP-9, H-Leu-Gly-Val-Thr-OH] (H-LGVT-OH)
Second: CC(C)C[C@H](NC(=O)[C@@H]1CCCN1C(=O)[C@@H](N)CC(C)C)C(=O)N[C@H](C(=O)O)[C@@H](C)O [PEP-10, H-Leu-Pro-Leu-Thr-OH] (H-LPLT-OH)
The “% MBNL1 vs Basal control” value of the first is lower: 122.4% for the first, 222.0% for the second.

Going from `CC[C@H](C)[C@H](NC(=O)[C@@H]1CCCN1C(=O)[C@@H](N)CC(C)C)C(=O)N[C@H](C(=O)O)[C@@H](C)O` [PEP-7, H-Leu-Pro-Ile-Thr-OH] (H-LPIT-OH) to `CC(C)C[C@H](N)C(=O)N1CCC[C@H]1C(=O)N[C@H](C(=O)O)C(C)C` [PEP-12, H-Leu-Pro-Val-OH] (H-Leu-Pro-Val-OH), the “% MBNL1 vs Basal control” value rises from 156.3% to 177.8%.

Compared with `CC(C)[C@H](N)C(=O)N1CCC[C@H]1C(=O)N[C@H](C(=O)N[C@H](C(=O)O)[C@@H](C)O)C(C)C` [PEP-8, H-Val-Pro-Val-Thr-OH] (H-VPVT-OH), `CC[C@H](C)[C@H](N)C(=O)N1CCC[C@H]1C(=O)N[C@H](C(=O)N[C@H](C(=O)O)[C@@H](C)O)[C@@H](C)CC` [PEP-13, H-Ile-Pro-Ile-Thr-OH] (H-IPIT-OH) is higher in “% MBNL1 vs Basal control” value: 131.3% for the first, 133.3% for the second.

First: H-ALPVT-OH [PEP-11, H-Ala-Leu-Pro-Val-Thr-OH]
Second: CC(C)C[C@H](N)C(=O)N[C@@H](C)C(=O)N[C@H](C(=O)N[C@H](C(=O)O)[C@@H](C)O)C(C)C [PEP-6, H-Leu-Ala-Val-Thr-OH] (H-LAVT-OH)
The “% MBNL1 vs Basal control” value of the first is higher: 259.0% for the first, 157.0% for the second.

Compared with `CC(=O)N[C@@H](CC(C)C)C(=O)N1CCC[C@H]1C(=O)N[C@H](C(=O)N[C@H](C(N)=O)[C@@H](C)O)C(C)C` [PEP-5, Ac-Leu-Pro-Val-Thr-NH2] (Ac-LPVT-NH2), `CC(C)C[C@H](N)C(=O)N1CCC[C@H]1C(=O)N[C@H](C(=O)N[C@H](C(N)=O)[C@@H](C)O)C(C)C` [PEP-2, H-Leu-Pro-Val-Thr-NH2] (H-LPVT-NH2) is lower in “% MBNL1 vs Basal control” value: 213.7% for the first, 183.2% for the second.

System: eyebrow
Test: In vivo eyebrow lifting effect in Caucasian volunteers (FrameScan image analysis)
Design: species or system human
Conditions: 28 days; result in words
Method: The study was carried out for 28 days. Forty-six (46) volunteers aged between 40 and 65 years old were included in the study and were divided into two groups. The first group included 36 volunteers (31 women and 5 men) which applied the composition described in Example 5 on half face and placebo (same composition without peptide) on the other half, twice a day for 28 days. The second group of 10 volunteers (9 women and 1 man) used a microcurrent device (Nuface®) with an activator gel without active ingredients once a day. Volunteers using the microcurrent device were trained on how to apply the activator gel and how to use the device to standardize its application among them. […]
Volunteers' facial images were acquired at initial time and after 28 days of product application. The efficacy of the product was assessed by the measurement of a diagonal distance between eyelashes and eyebrows obtained from image analysis with FrameScan® software. The diagonal distance was calculated by drawing a horizontal line between a point at the start of the eyelashes and a point at the end of eyelashes (the eyelashes' line). […]
A study was carried out for 28 days for determining the lifting effect of Ac-Asp-Val-Tyr-Lys-NH2 (not according to the invention). […] The eyebrow lifting effect was determined as disclosed in Example 12.

With `CC(=O)N[C@@H](CC(=O)O)C(=O)N[C@H](C(=O)N[C@@H](Cc1ccc(O)cc1)C(=O)N[C@@H](CCCCN)C(N)=O)C(C)C` [Ac-Asp-Val-Tyr-Lys-NH2] (Ac-DVYK-NH2) the Lifting effect was “did not have a lifting effect”.
